# “Also recorded” adds a separate entry of the source. Read-outs that look alike come from different tables or passages of the source. Marks after values point to notes of the source that are not given here.
# Columns and labels:
# D3R [1] = molecular target: T1, D3R (Homo sapiens, UniProt P35462); design: method as in PMID 24061855, PMID 19331412; conditions: R22 analogues, linker length; cited from earlier work
# D1R [2] = molecular target: T2, D1R (Homo sapiens, UniProt P21728); assay: HTRF competitive binding screening (NDF) at D1R carrier cells; conditions: 10 µM, n = 4, fluorescence decrease normalized to the control
# Method: (§1) All HTRF assays were performed using an HTRF-compatible plate reader (model Tecan Spark (Tecan Group, Männedorf, Switzerland)). The respective settings were specifically modified and optimized for the determination of D2R ligand-binding affinities. Binding affinities were determined using the same settings for measurements with D1R and D3R carrier cells. […] Fluorophores were excited at 320 nm. A dichroic 510 mirror was used, while lag and integration times of 100 and 400 µs were applied, respectively. Flashes were set to 75. Electronic gain was automatically optimized, while the z-position was optimized based on the well with the highest expected signal. […] The first plate was used to determine the gain and the z-position. Subsequently, the determined values were set manually for the second plate to enable direct comparison between the different plates.
# (§2) The cells used for the subsequent screening and detailed investigation of D1R and D3R ligands were acquired from PerkinElmer/cisbio (Waltham, MA, USA; Tag-lite Dopamine D1 or D3a-labeled Cells, ready-to-use (transformed and labeled), 200 tests; C1TT1D1 and C1TT1D3A, respectively). The cells were stored in liquid nitrogen until further use. Fluorescent-labelled ligands (Dopamine D2 Receptor red antagonist Fluorescent Ligand (L0002RED), stored at −20 °C and Dopamine D1 Receptor green antagonist (L0031GRE), stored at −20 °C), assay buffer (5Xconcentrate Tag-lite Buffer (TLB), 100 mL, stored at +4 °C; LABMED), and 96-well plates (HTRF 96-well low-volume white plate; 66PL96005) required for the in vitro assay were also acquired from PerkinElmer/cisbio. The assay was conducted according to the standard operation protocol (SOP) available from PerkinElmer/cisbio. The 96-well plates were incubated at room temperature for 2 h. The 96-well plates were read as described in Section 2.10. The respective concentrations of the dilution series were performed in triplicates. In total, Kd determination was performed twice.
# (§3) The investigated compounds were taken from a previous pharmacophore-based virtual screening study described in Zell et al.. The activities of all compounds were investigated via a competitive binding (in comparison with a fluorescence-labeled ligand) of the respective compounds at D1R/D3R, utilizing an HTRF assay using a screening concentration of 10 µM.
# D3R [3] = molecular target: T1, D3R; assay: HTRF competitive binding screening (NDF) at D3R carrier cells; conditions: 10 µM, n = 4, fluorescence decrease normalized to the control
# Method: as §1, §2, §3
# D2R [4] = molecular target: T3, D2R (Homo sapiens, UniProt P14416); conditions: 10 µM, n = 4, normalized to the control; cited from earlier work
# T3 construct: expressed in transfected cells; host or cells: D2R carrier cells (not described here)
# D1R [5] = molecular target: T2, D1R; assay: HTRF Ki determination at D1R; type: binding; conditions: n = 6, ± SD; n.d. = not determinable (highest concentration 100 µM)
# Method: as §1, §2
# (§4) The Ki was determined in duplicates following the SOP available from PerkinElmer/cisbio and as described in Section 2.10.
# (§5) Saturation binding curves were processed and visualized in GraphPad Prism 8 (Nonlinear regression (curve fit), One site—Fit logIC50 was performed using GraphPad Prism version 8.2.1 for Windows, GraphPad Software, San Diego. CA, USA). Molecular docking was performed in GOLD 5.8.0 (CCDC, Cambridge, United Kingdom). […] Two-dimensional structures of all shown compounds were generated using ChemDraw version 19.0 (PerkinElmer, Waltham, MA, USA).
# D2R [6] = molecular target: T3, D2R; assay: HTRF Ki determination at D2R; type: binding; conditions: for Selectivity D1R/D2R (Ki fold-difference): Ki assumed ≥100 µM where n.d.
# Method: as §1
# The characterization of the D2R carrier cells is detailed in [42].
# as §4, §5
# D3R [7] = molecular target: T1, D3R; assay: HTRF Ki determination at D3R; type: binding; conditions: for Selectivity D1R/D3R (Ki fold-difference) / Selectivity D2R/D3R (Ki fold-difference): Ki assumed ≥100 µM where n.d.
# Method: as §1
# The cells used for the subsequent screening and detailed investigation of D1R and D3R ligands were acquired from PerkinElmer/cisbio (Waltham, MA, USA; Tag-lite Dopamine D1 or D3a-labeled Cells, ready-to-use (transformed and labeled), 200 tests; C1TT1D1 and C1TT1D3A, respectively). The cells were stored in liquid nitrogen until further use. […] The assay was conducted according to the standard operation protocol (SOP) available from PerkinElmer/cisbio. The 96-well plates were incubated at room temperature for 2 h. The 96-well plates were read as described in Section 2.10. The respective concentrations of the dilution series were performed in triplicates. In total, Kd determination was performed twice.
# as §4, §5
# D2R [8] = molecular target: T3, D2R; design: method as in PMID 35889317; conditions: n = 6, ± SD; values from previous experiments; cited from earlier work
# D1R [9] = conditions: radio-ligand binding, cited from earlier work
# D2R [10] = conditions: radio-ligand binding, cited from earlier work
# D3R [11] = conditions: radio-ligand binding, cited from earlier work
# [12] = n = 6, ± SD, n.d. = not determinable (highest concentration 100 µM)
# [13] = Table S3 D2like-selective dataset, ref ChEMBL [56,69,72-106]
# [14] = Table S4 D3R-selective dataset, ref ChEMBL [53,56,62-118]
# T2 sequence (P21728 whole entry): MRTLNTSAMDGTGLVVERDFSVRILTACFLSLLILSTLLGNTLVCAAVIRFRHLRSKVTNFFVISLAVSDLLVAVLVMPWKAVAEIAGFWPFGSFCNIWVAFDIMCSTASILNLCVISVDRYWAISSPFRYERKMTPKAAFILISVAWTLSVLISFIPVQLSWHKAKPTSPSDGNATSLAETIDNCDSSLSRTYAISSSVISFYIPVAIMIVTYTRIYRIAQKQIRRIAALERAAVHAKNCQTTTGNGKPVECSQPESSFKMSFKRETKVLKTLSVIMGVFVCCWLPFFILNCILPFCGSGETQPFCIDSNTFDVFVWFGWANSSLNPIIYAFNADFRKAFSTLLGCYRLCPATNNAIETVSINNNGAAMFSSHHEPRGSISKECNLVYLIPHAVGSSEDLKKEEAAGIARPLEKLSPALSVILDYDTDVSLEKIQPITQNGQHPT
# T3 sequence (P14416 whole entry): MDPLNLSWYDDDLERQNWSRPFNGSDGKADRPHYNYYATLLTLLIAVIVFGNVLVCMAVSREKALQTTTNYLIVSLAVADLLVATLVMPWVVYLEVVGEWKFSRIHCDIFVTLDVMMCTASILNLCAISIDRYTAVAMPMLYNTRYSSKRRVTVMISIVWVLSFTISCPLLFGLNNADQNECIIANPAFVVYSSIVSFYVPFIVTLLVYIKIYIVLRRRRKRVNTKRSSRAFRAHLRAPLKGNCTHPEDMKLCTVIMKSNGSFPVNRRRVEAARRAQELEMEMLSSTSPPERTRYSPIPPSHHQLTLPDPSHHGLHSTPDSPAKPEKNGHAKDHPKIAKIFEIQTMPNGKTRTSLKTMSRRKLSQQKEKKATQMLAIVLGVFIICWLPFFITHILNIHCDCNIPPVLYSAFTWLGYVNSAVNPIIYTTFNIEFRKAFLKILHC
# T1 sequence (P35462 whole entry): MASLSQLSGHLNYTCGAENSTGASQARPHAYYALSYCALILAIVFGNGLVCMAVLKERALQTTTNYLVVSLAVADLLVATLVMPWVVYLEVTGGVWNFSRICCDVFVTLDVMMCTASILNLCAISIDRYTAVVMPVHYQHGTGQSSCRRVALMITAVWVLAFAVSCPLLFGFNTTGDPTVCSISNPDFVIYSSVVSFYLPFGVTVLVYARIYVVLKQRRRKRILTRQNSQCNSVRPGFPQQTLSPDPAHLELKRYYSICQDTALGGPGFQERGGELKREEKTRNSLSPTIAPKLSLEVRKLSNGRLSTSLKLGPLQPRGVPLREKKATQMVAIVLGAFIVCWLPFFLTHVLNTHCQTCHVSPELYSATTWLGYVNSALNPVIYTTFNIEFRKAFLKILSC
"Normalized Decrease in Fluorescence (NDF) ± SD, D1R (D1R [2])","Normalized Decrease in Fluorescence (NDF) ± SD, D3R (D3R [3])",Ki (D1R [5]) [nM],Selectivity D1R/D2R (Ki fold-difference) (D2R [6]),Selectivity D2R/D3R (Ki fold-difference) (D3R [7]),"Ki (D3R [7]; n = 6, ± SD) [nM]",Compound,"Normalized Decrease in Fluorescence (NDF) ± SD, D2R (D2R [4])",Selectivity D1R/D3R (Ki fold-difference) (D3R [7]),Ki (D2R [8]) [nM],further results
–,–,–,–,–,–,O=C(NCCCCN1CCN(c2cccc(Cl)c2Cl)CC1)c1cc2ccccc2[nH]1 [C4 analogue],–,–,–,D2R/D3R-selectivity fold-difference (D3R [1]): 45.7
3.47 ± 1.04,3.82 ± 1.32,–,–,–,–,"CN1CCc2cccc3c2[C@H]1Cc1ccc(O)c(O)c1-3 [Compound 1, apomorphine, reference compound]",9.44 ± 5.97,–,–,–
1.78 ± 1.35,3.96 ± 1.10,–,>21.4 ^b,12.2,380 ± 22,NS(=O)(=O)c1ccc(CCNCc2ccc(-c3cc(Cl)ccc3Cl)o2)cc1 [Compound 3],3.99 ± 2.58,–,4660 ± 2690,Ki D1R (D1R [5]): inactive
1.26 ± 0.64,2.65 ± 0.64,46900 ± 27400,4.28,4.86,2250 ± 910,CCN(CCC(=O)Nc1cccc(OC)c1)Cc1ccccc1 [Compound 5],15.74 ± 18.15,20.8,11000 ± 4430,–
2.15 ± 1.16,4.21 ± 0.79,7760 ± 4410,5.77,3.56,370 ± 280,O=C(CCN1CCN(c2ccccc2F)CC1)Nc1cccc(F)c1 [Compound 6],8.18 ± 3.62,20.7,1350 ± 630,–
1.57 ± 0.54,3.79 ± 0.70,8330 ± 2170,3.00,4.11,680 ± 68,O[C@H](CNCCNc1ccc(C(F)(F)F)cn1)CSc1ccc(F)cc1 [Compound 7],10.85 ± 4.93,12.3,2780 ± 1060,–
1.71 ± 0.86,3.97 ± 0.78,9460 ± 1180,28.6,13.8,24 ± 3,NC(=O)c1ccccc1OCCCN1CCN(c2ccccc2)CC1 [Compound 9],22.08 ± 6.62,395.1,330 ± 93,–
–,–,–,–,–,–,SC79,–,–,–,Ki (D1R [9]; [13]): 10000 nM; Ki (D2R [10]; [13]): 622 nM; Ki (D3R [11]; [13]): 6.11 nM
–,–,–,–,–,–,SC144,–,–,–,Ki (D1R [9]; [13]): 1300 nM; Ki (D2R [10]; [13]): 38 nM; Ki (D3R [11]; [13]): 3 nM
–,–,–,–,–,–,SC236,–,–,–,Ki (D1R [9]; [14]): 1270 nM; Ki (D2R [10]; [14]): 2320 nM; Ki (D3R [11]; [14]): 214 nM

Compound,"Normalized Decrease in Fluorescence (NDF) ± SD, D1R (D1R [2])","Normalized Decrease in Fluorescence (NDF) ± SD, D3R (D3R [3])",Ki (D1R [5]) [nM],Selectivity D1R/D2R (Ki fold-difference) (D2R [6]),Selectivity D2R/D3R (Ki fold-difference) (D3R [7]),"Ki (D3R [7]; n = 6, ± SD) [nM]","Normalized Decrease in Fluorescence (NDF) ± SD, D2R (D2R [4])",Selectivity D1R/D3R (Ki fold-difference) (D3R [7]),Ki (D2R [8]) [nM],further results
CN1CCN(C2Cc3ccc(O)cc3Sc3ccc(Cl)cc32)CC1 (centres unmarked) [Compound 2],5.46 ± 1.97,4.16 ± 1.08,9 ± 2,1.95,1.66,3 ± 1,40.41 ± 1.39,3.23,5 ± 2,–
Oc1cccc(C(O)CNCc2cccc(Cl)c2Cl)c1 (centres unmarked) [Compound 4],0.90 ± 0.31,2.75 ± 0.61,–,–,>27.2 ^b,3680 ± 940,0.90 ± 0.39,>27.2 ^b,–,Ki D1R (D1R [5]): inactive; also recorded: no determinable binding affinity; also recorded: no determinable binding affinities; Ki D2R (D2R [6]; [12]): inactive; also recorded: no determinable binding affinity; also recorded: no determinable binding affinities
COc1cc(CC[C@H](C)NCc2ccccc2)ccc1O [Compound 8],1.20 ± 0.59,2.63 ± 0.52,–,–,>43.1 ^b,2320 ± 920,1.10 ± 0.52,>43.1 ^b,–,Ki D1R (D1R [5]): inactive; also recorded: no determinable binding affinity; also recorded: no determinable binding affinities; Ki D2R (D2R [6]; [12]): inactive; also recorded: no determinable binding affinity; also recorded: no determinable binding affinities
COc1ccccc1N1CCN(CCCCNC(=O)c2ccc(Cl)cc2)CC1 [Compound 10],2.59 ± 1.04,4.09 ± 1.07,2380 ± 130,3.91,263.7,2 ± 1,22.89 ± 8.41,1031.4,–,Ki (D2R [6]; [12]): 610 ± 85 nM; Ki (D3R [7]): 2.3 nM

# — PMC10216180, “Dopamine Receptor Ligand Selectivity—An In Silico/In Vitro Insight” (Biomedicines, 2023)
